Patent publication US7872045B2, “Combination therapy for glaucoma treatment” (Allergan, Inc., priority 2001, dated 2011)

Target: T1, human EP4 receptor (hEP4) (Homo sapiens, UniProt P35408)
T1 construct: expressed in transfected cells; plasma membrane fraction
Assay: Radioligand binding competition vs [3H]PGE2, human recombinant EP4 receptor
Conditions: [3H]PGE2 competition, plasma membranes of HEK-293 stable transfectants, 60 min 25° C.
Procedure: Human Recombinant EP1, EP2, EP4, and FP Receptors: Stable Transfectants
HEK-293 cells stably expressing the human or feline FP receptor, or EP1, EP2, EP3, or EP4 receptors were washed with TME buffer, scraped from the bottom of the flasks, and homogenized for 30 sec using a Brinkman PT 10/35 polytron. TME buffer was added to achieve a final 40 ml volume in the centrifuge tubes (the composition of TME is […]; ION HCl is added to achieve a pH of 7.4).
The cell homogenate was centrifuged at 19000 r.p.m. for 20 min at 4° C. using a Beckman Ti-60 rotor. The resultant pellet was resuspended in TME buffer to give a final 1 mg/ml protein concentration, as determined by Biorad assay. Radioligand binding competition assays vs. [^3H-]17 -phenyl PGF2α (5 nM) were performed in a 100 μl volume for 60 min. Binding reactions were started by adding plasma membrane fraction. The reaction was terminated by the addition of 4 ml ice-cold TRIS-HCl buffer and rapid filtration through glass fiber GF/B filters using a Brandel cell harvester. The filters were washed 3 times with ice-cold buffer and oven dried for one hour. Non-specific binding was determined with 10 uM unlabeled 17 -phenyl PGF2α.
[^3H-] PGE2 (5 nM; specific activity 180 Ci mmol) was used as the radioligand for EP receptors. Binding studies employing EP1, EP2, EP3, EP4 were performed in duplicate in at least three separate experiments. A 200 μl assay volume was used. Incubations were for 60 min at 25° C. and were terminated by the addition of 4 ml of ice-cold 50 mM TRIS-HCl, followed by rapid filtration through Whatman GF/B filters and three additional 4 ml washes in a cell harvester (Brandel). Non-specific binding determined with 10^−5M of unlabeled PGE2,.
Plasmids encoding the human EP1, EP2, EP4, and FP receptors were prepared by cloning the respective coding sequences into the eukaryotic expression vector pCEP4 (Invitrogen). The pCEP4 vector contains an Epstein Barr virus (EBV) origin of replication, which permits episomal replication in primate cell lines expressing EBV nuclear antigen (EBNA-1). Similarly, competitive experiments were caried out using [3H]17-phenylPGF2α at 5 nM in the presence of test ligands at various concentrations. Also non-specific binding was, determined in the presence of excess unlabeled PGF2α (10^−5 M).
It also contains a hygromycin resistance gene that is used for eukaryotic selection. The cells employed for stable transfection were human embryonic kidney cells (HEK-293) that were transfected with and express the EBNA-1 protein. These HEK-293-EBNA cells (Invitrogen) were grown in medium containing Geneticin (G418) to maintain expression of the EBNA-1 protein. HEK-293 cells were grown in DMEM with 10% fetal bovine serum (FBS), 250 μg ml G418 (Life Technologies) and 200 μg ml^−1 gentamicin or penicillin/streptomycin.
For transfection, the cells were grown to 50-60% confluency on 10 cm plates. The plasmid pCEP4 incorporating cDNA inserts for the respective human prostanoid receptor (20 μg) was added to 500 μl of 250 mM CaCl2. HEPES buffered saline ×2 (2×HBS, 280 mM NaCl, 20 mM HEPES acid, 1.5 mM Na2 HPO4, pH 7.05-7.12) was then added dropwise to a total of […], with continuous vortexing at room temperature. After 30 min, 9 ml DMEM were added to the mixture. The DNA/DMEM/calcium phosphate mixture was then added to the cells, which had been previously rinsed with 10 ml PBS. The cells were then incubated for 5 hr at 37° C. in humidified 95% air/5% CO2. The calcium phosphate solution was then removed and the cells were treated with 10% glycerol in DMEM for 2 min. The glycerol solution was then replaced by DMEM with 10% FBS. The cells were incubated overnight and the medium was replaced by DMEM/10% FBS containing 250 μg ml^−1 G418 and penicillin/streptomycin. The following day hygromycin B was added to a final concentration of 200 μg ml^−1. […]

T1 sequence (P35408 whole entry): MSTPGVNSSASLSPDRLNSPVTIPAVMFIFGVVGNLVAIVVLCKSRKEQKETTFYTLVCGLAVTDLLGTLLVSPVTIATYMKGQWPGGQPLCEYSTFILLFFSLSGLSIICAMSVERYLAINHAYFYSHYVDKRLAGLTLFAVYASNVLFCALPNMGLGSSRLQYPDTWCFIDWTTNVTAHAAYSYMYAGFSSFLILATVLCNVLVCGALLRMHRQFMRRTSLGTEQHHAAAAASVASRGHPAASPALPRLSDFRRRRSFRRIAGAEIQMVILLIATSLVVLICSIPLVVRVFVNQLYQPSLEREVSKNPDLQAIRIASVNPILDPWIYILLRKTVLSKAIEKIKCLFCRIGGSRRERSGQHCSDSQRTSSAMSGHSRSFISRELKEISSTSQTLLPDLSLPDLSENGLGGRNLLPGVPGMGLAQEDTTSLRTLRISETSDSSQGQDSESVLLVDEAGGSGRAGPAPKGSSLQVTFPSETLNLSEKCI

Compound	IC50 [nM]
COC(=O)CSCCCS[C@H]1C(=O)C[C@@H](O)[C@@H]1/C=C/C(O)Cc1csc2ccccc12 (single isomer, unassigned) [Example 24H]	200
COC(=O)CSCCCS[C@H]1C(=O)C[C@@H](O)[C@@H]1/C=C/C(C)(O)CCc1ccc2ccccc2c1 (single isomer, unassigned) [Example 27H]	500
COC(=O)CSCCCS[C@H]1C(=O)C[C@@H](O)[C@@H]1/C=C/C(C)(O)CCc1ccc2ccccc2c1 (single isomer, unassigned) [Example 27L]	3400
COC(=O)CSCCCS[C@H]1C(=O)C[C@@H](O)[C@@H]1/C=C/C(O)CCc1ccc2ccccc2c1 (stereo partly drawn) [Example 9H, {3-[(1R,2S,3R)-3-Hydroxy-2-((S)-(E)-3-(hydroxy)-5-(naphthyl)pent-1-enyl)-5-oxocyclopentylsulfanyl]propylsulfanyl}acetic acid methyl ester]	40
COC(=O)CSCCCS[C@H]1C(=O)C[C@@H](O)[C@@H]1/C=C/[C@@H](O)CCc1cc2ccccc2s1 [Example 13H, {3-[(1R,2S,3R)-3-Hydroxy-2-((S)-(E)-3-hydroxy-5-(benzothienyl)pent-1-enyl)-5-oxocyclopentylsulfanyl]propylsulfanyl}acetic acid methyl ester]	91
COC(=O)CSCCCS[C@H]1C(=O)C[C@@H](O)[C@@H]1/C=C/C(C)(O)Cc1ccc2ccccc2c1 (stereo partly drawn) [Example 30L, {3-[(1R,2S,3R)-3-Hydroxy-2-((E)-3-hydroxy-3-methyl-4-naphthalen-2-yl-but-1-enyl)-5-oxocyclopentylsulfanyl]propylsulfanyl}acetic acid methyl ester]	3200
COC(=O)CSCCCS[C@H]1C(=O)C[C@@H](O)[C@@H]1/C=C/[C@@](C)(O)CCc1cc2ccccc2s1 [Example 33H, {3-[(1R,2S,3R)-3-Hydroxy-2-((S)-(E)-3-(hydroxy)-3-(methyl)-5-(benzothienyl)pent-1-enyl)-5-oxocyclopentylsulfanyl]propylsulfanyl}acetic acid methyl ester]	200
COC(=O)CSCCCS[C@H]1C(=O)C[C@@H](O)[C@@H]1/C=C/[C@@](C)(O)CCc1cc2ccccc2s1 [Example 33L, {3-[(1R,2S,3R)-3-Hydroxy-2-((S)-(E)-3-(hydroxy)-3-(methyl)-5-(benzothienyl)pent-1-enyl)-5-oxocyclopentylsulfanyl]propylsulfanyl}acetic acid methyl ester]	300
